Peptide text beside a SMILES is read from it. * marks the point of attachment. Cbz = O=C(OCc1ccccc1)*; CH2F = FC*
Columns and labels:
Conditions in all cases: FIGS. 6-7
[1] = biological target: USP7 (Homo sapiens, UniProt Q93009); test: Western blot inhibitor screen, HA tagged Ub-VME probe, other enzymes; format: binding
[2] = test system: UL36; test: Western blot screen for inhibitors: anti-HA blot of UL36 bound to HA tagged Ub-VME probe; format: binding, HSV-1
Text: FIGS. 6-7 is a series photographs showing the results of a screen for inhibitors of the Herpes deubiquitinating enzyme. The photographs show the results of Western blot assays: anti-HA blots for detecting UL36 bound to the HA tagged Ub-VME probe.

[3] = biological target: Ataxin-3 (Homo sapiens, UniProt P54252); test: Western blot inhibitor screen, HA tagged Ub-VME probe, other enzymes; format: binding
[4] = biological target: T1, Cezanne (Homo sapiens, UniProt Q6GQQ9); test: as above; format: binding
T1 sequence (Q6GQQ9 1-843): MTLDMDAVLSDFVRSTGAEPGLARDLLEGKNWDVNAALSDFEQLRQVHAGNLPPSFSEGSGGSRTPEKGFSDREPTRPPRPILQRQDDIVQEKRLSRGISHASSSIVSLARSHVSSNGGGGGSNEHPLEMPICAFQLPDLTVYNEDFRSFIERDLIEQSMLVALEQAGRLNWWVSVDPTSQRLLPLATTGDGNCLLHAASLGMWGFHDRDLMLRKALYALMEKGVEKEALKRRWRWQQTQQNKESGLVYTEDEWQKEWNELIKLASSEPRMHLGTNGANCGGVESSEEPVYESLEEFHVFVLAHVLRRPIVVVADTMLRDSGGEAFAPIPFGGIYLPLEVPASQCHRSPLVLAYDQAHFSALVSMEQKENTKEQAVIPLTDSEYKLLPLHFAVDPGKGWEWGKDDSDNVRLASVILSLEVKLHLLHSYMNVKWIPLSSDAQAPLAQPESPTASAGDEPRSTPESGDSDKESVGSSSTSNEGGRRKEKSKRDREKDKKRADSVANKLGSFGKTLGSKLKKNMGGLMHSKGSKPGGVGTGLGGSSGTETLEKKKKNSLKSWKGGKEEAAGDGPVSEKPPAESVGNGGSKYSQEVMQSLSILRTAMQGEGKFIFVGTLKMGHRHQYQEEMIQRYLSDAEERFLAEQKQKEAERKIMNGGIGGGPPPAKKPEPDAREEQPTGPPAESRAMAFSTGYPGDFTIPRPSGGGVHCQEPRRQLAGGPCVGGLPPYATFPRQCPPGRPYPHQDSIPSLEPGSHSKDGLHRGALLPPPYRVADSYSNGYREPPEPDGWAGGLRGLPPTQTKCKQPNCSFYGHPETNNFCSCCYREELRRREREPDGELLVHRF

[5] = biological target: T2, UCH-3 (Homo sapiens, UniProt P15374); test: as above; format: binding
T2 sequence (P15374 1-230): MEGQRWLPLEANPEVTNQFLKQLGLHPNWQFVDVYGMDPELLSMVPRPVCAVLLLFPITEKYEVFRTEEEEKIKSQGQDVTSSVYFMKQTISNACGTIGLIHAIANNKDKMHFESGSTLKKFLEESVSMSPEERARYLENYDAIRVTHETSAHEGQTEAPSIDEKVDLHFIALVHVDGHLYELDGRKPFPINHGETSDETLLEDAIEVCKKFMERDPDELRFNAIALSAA

[6] = biological target: T3, UCH-1 (Homo sapiens, UniProt P09936); test: as above; format: binding
T3 sequence (P09936 1-223): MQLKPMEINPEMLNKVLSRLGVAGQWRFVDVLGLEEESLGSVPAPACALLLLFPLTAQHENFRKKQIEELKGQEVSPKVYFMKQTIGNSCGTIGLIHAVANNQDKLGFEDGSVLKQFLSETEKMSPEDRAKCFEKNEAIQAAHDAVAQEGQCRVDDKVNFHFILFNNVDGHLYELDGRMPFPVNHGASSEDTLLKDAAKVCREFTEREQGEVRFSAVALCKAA

[7] = biological target: T4, CYLD (Homo sapiens, UniProt Q9NQC7); test: as above; format: binding
T4 sequence (Q9NQC7 1-956): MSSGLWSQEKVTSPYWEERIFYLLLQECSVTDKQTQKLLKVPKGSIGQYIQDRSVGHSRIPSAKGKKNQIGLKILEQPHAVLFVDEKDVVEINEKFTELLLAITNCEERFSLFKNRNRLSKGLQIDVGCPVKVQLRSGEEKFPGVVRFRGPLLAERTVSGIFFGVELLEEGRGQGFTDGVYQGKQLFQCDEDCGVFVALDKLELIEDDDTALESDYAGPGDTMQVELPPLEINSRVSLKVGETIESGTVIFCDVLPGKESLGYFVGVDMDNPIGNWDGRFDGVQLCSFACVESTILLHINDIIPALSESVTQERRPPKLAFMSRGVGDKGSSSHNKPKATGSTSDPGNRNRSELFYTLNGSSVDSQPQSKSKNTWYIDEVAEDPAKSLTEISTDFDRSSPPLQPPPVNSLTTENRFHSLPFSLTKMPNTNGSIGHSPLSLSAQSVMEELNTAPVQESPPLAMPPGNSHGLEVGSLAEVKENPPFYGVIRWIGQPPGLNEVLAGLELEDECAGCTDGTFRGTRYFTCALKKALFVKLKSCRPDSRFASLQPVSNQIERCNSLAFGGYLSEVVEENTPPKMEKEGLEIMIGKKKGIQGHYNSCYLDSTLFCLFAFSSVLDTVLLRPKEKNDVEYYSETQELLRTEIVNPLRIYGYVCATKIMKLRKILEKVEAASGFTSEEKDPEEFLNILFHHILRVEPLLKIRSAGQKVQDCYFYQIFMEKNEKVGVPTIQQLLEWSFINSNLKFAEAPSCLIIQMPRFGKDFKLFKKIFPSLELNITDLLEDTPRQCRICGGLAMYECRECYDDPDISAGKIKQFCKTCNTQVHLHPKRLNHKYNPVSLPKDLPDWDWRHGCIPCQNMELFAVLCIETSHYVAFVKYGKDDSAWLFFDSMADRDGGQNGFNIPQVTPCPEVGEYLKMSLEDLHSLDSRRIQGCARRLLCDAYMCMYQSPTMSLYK

Sequence of USP7 (Q93009 whole entry, species assumed): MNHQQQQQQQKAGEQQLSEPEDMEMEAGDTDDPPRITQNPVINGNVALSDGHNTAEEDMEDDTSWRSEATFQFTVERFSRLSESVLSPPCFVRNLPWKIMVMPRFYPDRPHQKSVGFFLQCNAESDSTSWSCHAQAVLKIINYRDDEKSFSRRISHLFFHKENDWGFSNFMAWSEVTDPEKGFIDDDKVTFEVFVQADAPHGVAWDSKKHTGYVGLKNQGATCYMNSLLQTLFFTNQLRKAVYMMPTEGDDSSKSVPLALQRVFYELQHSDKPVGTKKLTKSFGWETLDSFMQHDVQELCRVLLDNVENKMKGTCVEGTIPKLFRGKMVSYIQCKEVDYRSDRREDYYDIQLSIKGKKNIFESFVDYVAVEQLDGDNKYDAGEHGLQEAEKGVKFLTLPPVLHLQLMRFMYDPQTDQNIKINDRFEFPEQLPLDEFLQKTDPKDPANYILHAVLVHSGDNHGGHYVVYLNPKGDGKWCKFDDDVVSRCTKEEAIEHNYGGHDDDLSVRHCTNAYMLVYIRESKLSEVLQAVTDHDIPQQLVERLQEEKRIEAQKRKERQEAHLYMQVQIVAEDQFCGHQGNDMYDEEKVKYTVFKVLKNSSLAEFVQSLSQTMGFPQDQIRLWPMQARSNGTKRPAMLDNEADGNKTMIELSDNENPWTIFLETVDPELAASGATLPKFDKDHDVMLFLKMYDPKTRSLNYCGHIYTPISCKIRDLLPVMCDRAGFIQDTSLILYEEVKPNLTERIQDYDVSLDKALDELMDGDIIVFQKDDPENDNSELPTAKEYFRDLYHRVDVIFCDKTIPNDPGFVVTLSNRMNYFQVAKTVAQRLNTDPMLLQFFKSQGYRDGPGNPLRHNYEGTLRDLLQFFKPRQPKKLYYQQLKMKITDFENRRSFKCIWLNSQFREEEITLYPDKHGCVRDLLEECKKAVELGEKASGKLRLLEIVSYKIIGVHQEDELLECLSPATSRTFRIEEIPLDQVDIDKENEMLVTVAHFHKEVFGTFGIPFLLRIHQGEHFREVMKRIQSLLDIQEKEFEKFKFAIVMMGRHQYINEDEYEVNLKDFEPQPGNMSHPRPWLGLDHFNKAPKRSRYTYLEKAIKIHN
Sequence of Ataxin-3 (P54252 whole entry, species assumed): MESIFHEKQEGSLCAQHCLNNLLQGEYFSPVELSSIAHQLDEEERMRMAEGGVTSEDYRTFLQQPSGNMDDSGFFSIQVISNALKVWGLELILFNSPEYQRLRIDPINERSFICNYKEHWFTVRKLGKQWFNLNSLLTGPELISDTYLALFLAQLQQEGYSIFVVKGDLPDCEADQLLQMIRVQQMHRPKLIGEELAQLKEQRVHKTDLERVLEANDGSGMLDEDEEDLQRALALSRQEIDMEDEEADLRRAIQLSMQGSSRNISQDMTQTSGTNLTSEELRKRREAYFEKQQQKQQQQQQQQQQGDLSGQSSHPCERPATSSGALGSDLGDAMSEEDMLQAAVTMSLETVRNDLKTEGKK

CC(C)[C@H](NC(=O)OCc1ccccc1)C(=O)N[C@@H](C)C(=O)N[C@@H](C)C(=O)CF [Z-VA-L-A-fink] (Cbz-Val-Ala-Ala-CH2F)
Inhibition of USP7 [1]: did not inhibit | Inhibition of UL36 (HA band of UL36 bound to HA tagged Ub-VME probe decreases or disappears) [2]: specifically inhibited | Inhibition of Ataxin-3 [3]: did not inhibit | Inhibition of Cezanne [4]: did not inhibit | Inhibition of UCH-3 [5]: did not inhibit | Inhibition of UCH-1 [6]: did not inhibit | Inhibition of CYLD [7]: did not inhibit

Source: US20070092942A1, “Ubiquitin specific enzymes of family herpesviridae” (priority 2005, published 2007)
